# Source: patent US20140073793A1, “Germanium-containing camptothecin analogues” (BioNumeric Pharmaceuticals, Inc., priority 2012, published 2014)
# pIC50: −log10 of the molar value. Where two headings read alike, the source gives them in different places.
# Columns and labels:
# A2780/DX5 cells = assay: cells; type: cell-based, human
# Method: (§1) Wild type human ovarian cancer cells (A2780/WT) and doxorubicin-resistant human ovarian cancer cells (A2780/DX5) were cultured in RPMI 1640 medium supplemented with 10% fetal bovine serum and 2 mM glutamine, and grown in a 37° C. incubator with 5% CO2. BNP1350 (also designated 7-[2-trimethylsilyl)ethyl]-20(S)-camptothecin; BNP1350; and Karenitecin®); BNP1394 (also designated 7-[2′-trimethylgermanyl]ethyl-20(S) camptothecin; Topotecan; and 9-NH2-camptothecin were synthesized and purified at BioNumerik Pharmaceuticals, Inc., and dissolved in DMSO for use in cytotoxicity experiments where inhibition of cell growth was measured using the sulforhodamine B (SRB) assay to assess cytotoxicity and absorbance at 570 nm (A570) in order to calculate the percentage of cell control (or percent cell survival) SRB assay. See. e.g., Skehan P., Stieng R., Scudiero D., et al. New colorimetric cytotoxicity assay for anticancer-drug screen. J. Natl. Cancer Inst. 82:1107-1112 (1990)).
# (§2) Briefly, cells were seeded (500 cells/well in 100 μL volume) to 96-well microliter plates and allowed to attach for 24 hours prior to treatment with BNP1350, BNP1394, Topotecan, and 9-NH2-camptothecin for 2 hours. Following this 2 hour treatment, BNP1350, BNP1394, Topotecan, and 9-NH2-camptothecin were removed, cells were washed with drug-free media (200 μL) and then drug-free media (200 μL) was added to the cells and cells were allowed to continue growing at 37° C. with 5% CO2 before the SRB assay was performed (total experiment time from time of seeding was 5 days, during which a total of five (5) cell-doublings occurred).
# (§3) Wild-type human ovarian cancer cells (A2780/WT) and doxorubicin-resistant human ovarian cancer cells (A2780/DX5) were cultured in RPMI 1640 medium supplemented with 10% fetal bovine serum and 2 mM L-glutamine, and grown in a 37° C. incubator with 5% CO2. Population doubling times for the two cell lines used in this study encompassed a total of five cell doublings corresponding to approximately 5 days for A2780/WT and A2780/DX5 cells. Both cell lines were maintained as monolayered cultures in T-25 or T-75 flasks and then seeded to microliter plate wells for experiments described herein.
# (§4) In brief, cells were seeded (500 cells/well in 100 μL total volume) into 96-well microliter plates and allowed to attach for 24 hours prior to treatment with BNP1350, BNP1394, Topotecan, or 9-NH2-camptothecin for 2 hours. The aforementioned compounds were dissolved in DMSO for use in cytotoxicity experiments where inhibition of cell growth was measured using the SRB assay.
# (§5) Following this 2 hour drug treatment, the BNP1350, BNP1394, Topotecan, and 9-NH2-camptothecin were removed, cells were washed with drug-free media (200 μL) and then drug-free media (200 μL) was added to the cells and cells were allowed to continue growing at 37° C. with 5% CO2 before the SRB assay was performed (total experiment time from time of seeding was 5 days, during which time a total of 5 cell doublings had occurred).
# (§6) The sulforhodamine B (SRB) cytotoxicity assay (see, Skehan P, et al., New colorimetric cytotoxicity assay for anticancer-drug screening. J. Natl. Cancer Inst. 82:1107-1112 (1990)) was used to determine the cytotoxic effects of BNP1350, BNP10120 or BNP10121 on cell growth in vitro. Briefly, after the medium was aspirated from individual plate wells, trichloroacetic acid (100 μL of 10.0% solution) was added to each well, and the plates were incubated at 4° C. for at least 1 hour. The plates were washed five-times with water using an automated microplate washer (Model EL 404, Bio-Tek Instruments), SRB solution (100 μL of 0.4 grams SRB dissolved in 100 mL 1.0 percent acetic acid) was added, and plates remained at room temperature for 15 minutes. The plates were then washed five-times using acetic acid (1.0%), air dried, and bound dye was solubilized in Tris base (150 μL, 10 mM). […]
# A2780/WT cells = assay: cells; type: cell-based, human
# Method: as §1, §2, §3, §4, §5, §6
# [1] = 2 hour drug treatment, SRB at 5 days, read-out: IC50 Test 1
# [2] = 2 hour drug treatment, SRB at 5 days, read-out: IC50 Test 2
# [3] = 2 hour drug treatment, SRB at 5 days, read-out: IC50 Test 3
# [4] = 2 hour drug treatment, SRB at 5 days, read-out: IC50 Test 4
# [5] = 2 hour drug treatment, SRB at 5 days, read-out: IC50 Test 5
# [6] = average of the tests, read-out: IC50 Average
# [7] = 2 hour drug treatment, SRB at 5 days, read-out: IC50 Test 6
# [8] = average of Tests 1-6, read-out: IC50 Average
# [9] = Homo sapiens, 2 hour drug treatment, SRB at 5 days, read-out: IC50 Test 1
# [10] = Homo sapiens, 2 hour drug treatment, SRB at 5 days, read-out: IC50 Test 2
# [11] = Homo sapiens, 2 hour drug treatment, SRB at 5 days, read-out: IC50 Test 3
# [12] = Homo sapiens, 2 hour drug treatment, SRB at 5 days, read-out: IC50 Test 4
# [13] = Homo sapiens, 2 hour drug treatment, SRB at 5 days, read-out: IC50 Test 5
Compound,inhibition of cell growth (in words) (A2780/DX5 cells),pIC50 (A2780/DX5 cells; [1]),pIC50 (A2780/DX5 cells; [2]),pIC50 (A2780/DX5 cells; [3]),pIC50 (A2780/DX5 cells; [4]),pIC50 (A2780/DX5 cells; [5]),pIC50 (A2780/DX5 cells; [6]),inhibition of cell growth (in words) (A2780/WT cells),pIC50 (A2780/WT cells; [1]),pIC50 (A2780/WT cells; [2]),pIC50 (A2780/WT cells; [3]),pIC50 (A2780/WT cells; [4]),pIC50 (A2780/WT cells; [5]),pIC50 (A2780/WT cells; [7]),pIC50 (A2780/WT cells; [8]),IC50 values (in words) (A2780/DX5 cells),IC50 values (in words) (A2780/WT cells),other results
"CC[C@@]1(O)C(=O)OCc2c1cc1n(c2=O)Cc2cc3c(N)cccc3nc2-1 [9-NH2-camptothecin, 9-amino camptothecin]",inhibitors,6.22,6.60,6.60,6.26,6.22,6.35,inhibitors,6.82,7.05,6.82,6.70,6.60,7.05,6.81,–,–,–
CC[C@@]1(O)C(=O)OCc2c1cc1n(c2=O)Cc2c-1nc1ccccc1c2CC[Si](C)(C)C [BNP1350],inhibitors,7.82,7.82,7.82,7.62,8.00,7.80,inhibitors,7.82,7.82,7.82,7.70,7.89,7.80,7.82,nanomolar,nanomolar,–
"CC[C@@]1(O)C(=O)OCc2c1cc1n(c2=O)Cc2c-1nc1ccccc1c2C[CH2][Ge]([CH3])([CH3])[CH3] [BNP1394, 7-[2′-trimethylgermanyl]ethyl-20(S) camptothecin]",inhibitors,–,–,–,–,–,–,inhibitors,–,–,–,–,–,–,–,nanomolar,nanomolar,–
"CC[C@@]1(O)C(=O)OCc2c1cc1n(c2=O)Cc2cc3c(CN(C)C)c(O)ccc3nc2-1 [Topotecan, 9-dimethylaminomethyl-10-hydroxy camptothecin]",inhibitors,–,–,–,–,–,–,inhibitors,–,–,–,–,–,–,–,–,–,"pIC50 (A2780/DX5 cells; [9]): 6.26; pIC50 (A2780/DX5 cells; [10]): 6.10; pIC50 (A2780/DX5 cells; [11]): 5.70; pIC50 (A2780/DX5 cells; [12]): 6.00; pIC50 (A2780/DX5 cells; [13]): 5.70; pIC50 (A2780/DX5 cells; Homo sapiens, average of the tests, read-out: IC50 Average): 5.90; pIC50 (A2780/WT cells; [9]): 6.46; pIC50 (A2780/WT cells; [10]): 6.70; pIC50 (A2780/WT cells; [11]): 6.52; pIC50 (A2780/WT cells; [12]): 6.22; pIC50 (A2780/WT cells; [13]): 6.05; pIC50 (A2780/WT cells; Homo sapiens, 2 hour drug treatment, SRB at 5 days, read-out: IC50 Test 6): 6.22; pIC50 (A2780/WT cells; Homo sapiens, average of Tests 1-6, read-out: IC50 Average): 6.31"
